Test [1] deals with HDAC class I and II activity in HEK293T cells. The test is described as follows: HDAC-Glo I/II cellular assay in HEK293T cells. In kind it is cell-based. As to conditions: qHTS; 1 hour; active = CRC class 1 and 2 and AUC>100. (In qHTS, concentration-response curves come from the screen itself.)
In test [2] the target is Recombinant human HDAC1 enzyme (Homo sapiens, UniProt Q13547). Briefly: HDAC-Glo I/II enzymatic assay. In kind it is biochemical. As to conditions: for Activity outcome in HDAC1 enzymatic HDAC-Glo I/II assay: qHTS, 11 concentrations, active = CRC class 1 and 2 and AUC>100; for Emax: read-out: % Efficacy, HDAC-Glo: HDAC1.
Recombinant human HDAC1 enzyme, sequence (Q13547 whole entry, the tested form may be a part): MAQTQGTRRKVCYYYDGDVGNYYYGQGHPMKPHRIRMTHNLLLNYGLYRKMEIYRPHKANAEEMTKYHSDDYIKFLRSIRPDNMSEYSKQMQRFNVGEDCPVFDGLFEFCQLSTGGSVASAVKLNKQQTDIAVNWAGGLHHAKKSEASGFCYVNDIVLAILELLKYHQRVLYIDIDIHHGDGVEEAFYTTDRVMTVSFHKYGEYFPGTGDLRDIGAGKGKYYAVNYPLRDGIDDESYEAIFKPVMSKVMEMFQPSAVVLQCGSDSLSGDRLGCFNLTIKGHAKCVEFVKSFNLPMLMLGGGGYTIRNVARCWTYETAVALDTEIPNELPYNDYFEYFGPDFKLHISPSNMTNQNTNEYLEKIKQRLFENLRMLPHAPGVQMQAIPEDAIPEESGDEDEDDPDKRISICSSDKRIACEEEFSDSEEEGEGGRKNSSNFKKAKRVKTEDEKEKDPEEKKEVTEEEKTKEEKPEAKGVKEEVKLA
For test [3], the target named is HDAC1-NanoLuc fusion protein (Homo sapiens, UniProt Q13547). Briefly: HDAC1 NanoBRET target engagement assay in HEK293T cells. In kind it is binding. Conditions: for Average IC50 ± SD, NanoBRET: HEK293T: n=2; for Average IC50 ± SD, NanoBRET: HEK293T / Activity outcome in NanoBRET (HDAC1 engagement, displacement of SAHA tracer): HEK293T; for Activity outcome in NanoBRET (HDAC1 engagement, displacement of SAHA tracer): 28.9 μM to 0.49 nM, active = CRC class 1 and 2 and AUC>100.
HDAC1-NanoLuc fusion protein, sequence (Q13547 whole entry, the tested form may be a part): as above

Another test concerns the target HDAC1–86b (Homo sapiens, UniProt Q13547). Briefly: HDAC1-86b SplitLuc CETSA in HEK293T cells. As to conditions: thermal stabilization at 49°C, n=2. The test is classed as binding.

HDAC1–86b, sequence (Q13547 whole entry): as the sequence (Q13547 whole entry, the tested form may be a part) above

As to `O=C(CCCCCCSc1ccc2ccccc2c1)NO` [HNHA], in test [1], the “Activity outcome in HEK293T cellular HDAC-Glo I/II assay” value is “inactive”. Also, the “Activity outcome in HDAC1 enzymatic HDAC-Glo I/II assay” value in test [2] is “inactive”.

Consider `COc1cc(OC)c2c(=O)[nH]c(-c3cc(C)c(OCCO)c(C)c3)nc2c1` [RVX-208], for which the “Activity outcome in HDAC1 enzymatic HDAC-Glo I/II assay” value in test [2] is recorded as “active”.

Usually IC50 stands for the concentration at which inhibition is half-maximal. For the compound `O=C(Nc1ccc([N+](=O)[O-])cc1Cl)c1cc(Cl)ccc1O` [Niclosamide], the “Average IC50 ± SD, NanoBRET: HEK293T” value in test [3] was “Inactive”. For the same compound, the “Average IC50 ± SD (% Efficacy), SplitLuc CETSA: HEK293T” value (“Average IC50 ± SD (% Efficacy)” for short) on HDAC1–86b is on record as “Inactive”. Moreover, in test [2], the concentration for half-maximal inhibition (IC50) stood at 2.8 ± 0.01 µM and the Emax was 99%.

Regarding `CCCSc1ccc2nc(NC(=O)OC)[nH]c2c1` [Albendazole], in test [2], the 50% inhibitory concentration (IC50) was 7.7 ± 0.8 µM and the Emax is 93%.

For `CN(C)C(=O)COC(=O)Cc1ccc(OC(=O)c2ccc(NC(=N)N)cc2)cc1` [Camostat], in test [3], the half-inhibitory concentration (IC50) was 8.2 ± 1.4 µM and the “Activity outcome in NanoBRET (HDAC1 engagement, displacement of SAHA tracer)” value (shortened to “Activity outcome in NanoBRET”) is on record as “weakly engage HDAC1”. Besides, the Emax in test [3] (read-out: % Efficacy, NanoBRET: HEK293T) is 90%. Besides, at HDAC1–86b, the “Average IC50 ± SD (% Efficacy)” value is “Inactive”. In test [2], the half-inhibitory concentration (IC50) was 1.1 ± 0.1 µM and the Emax was 95%.

Turning to `NC(=O)c1cccc2[nH]c(-c3ccc([C@@H]4CCCN4)cc3F)nc12` [A-966492], the “Activity outcome in HDAC1 enzymatic HDAC-Glo I/II assay” value in test [2] is reported as “active”.

In the case of `O=C(Nc1ncc([N+](=O)[O-])s1)c1cccs1` [Tenonitrozole], in test [2], the IC50 worked out at 1.7 ± 0.01 µM and the Emax was 93%.

Regarding `Cn1cc(C(=O)Cc2ccccc2)cc1/C=C/C(=O)NO` [APHA Compound 8], in test [1], the “Activity outcome in HEK293T cellular HDAC-Glo I/II assay” value was “either inactive or did not pass the activity cutoff”. In addition, the “Activity outcome in HDAC1 enzymatic HDAC-Glo I/II assay” value in test [2] is “active”.

On to `O=C(CCCCCCC(=O)Nc1cccnc1)NO` [Pyroximide], for which, in test [1], the “Activity outcome in HEK293T cellular HDAC-Glo I/II assay” value was “inactive”.

Turning to `O=C(/C=C/c1ccc(CN(CCO)CCc2c[nH]c3ccccc23)cc1)NO` [Dacinostat], the “Activity outcome in HEK293T cellular HDAC-Glo I/II assay” value in test [1] was “most potent”.

On to `CCCCN(Cc1ccc(C(=O)NO)cc1)C(=O)Nc1ccccc1` [Nexturastat A], for which the “Activity outcome in NanoBRET” value in test [3] was “engagement”.

Regarding `CNC(=O)c1ccccc1Sc1ccc2c(/C=C/c3ccccn3)n[nH]c2c1` [Axitinib], in test [3], the “Average IC50 ± SD, NanoBRET: HEK293T” value was “Inactive”. Besides, the “Average IC50 ± SD (% Efficacy)” value at HDAC1–86b is listed as “Inactive”. For the same compound, in test [2], the half-inhibitory concentration (IC50) amounted to 3 ± 0.2 µM and the Emax was 90%.

`Cc1oncc1C(=O)Nc1ccc(C(F)(F)F)cc1` [Leflunomide]: the “Average IC50 ± SD, NanoBRET: HEK293T” value in test [3] is “Inactive”. The “Average IC50 ± SD (% Efficacy)” value on HDAC1–86b was “Inactive”. Also, in test [2], the IC50 was determined as 3 ± 0.2 µM and the Emax is 96%.

With `Oc1ccc(/C=C/c2cc(O)cc(O)c2)cc1` [Resveratrol], at HDAC1–86b, the “Average IC50 ± SD (% Efficacy)” value is given as “Inactive”. Further, in test [2], the IC50 turned out to be 1.5 ± 0.01 µM and the Emax was 95%.

Turning to `c1ccc2[nH]c(-c3cscn3)nc2c1` [Thiabendazole], the “Average IC50 ± SD, NanoBRET: HEK293T” value in test [3] is reported as “Inactive”. The “Average IC50 ± SD (% Efficacy)” value on HDAC1–86b was “Inactive”. Also, in test [2], the IC50 worked out at 3.8 ± 0.6 µM and the Emax is 90%.

For `CC(C)C(=O)SCCCCCCC(=O)Nc1nc(-c2ccccc2)cs1` [PTACH], in test [3], the “Activity outcome in NanoBRET” value is “engagement”. The “Activity outcome in HEK293T cellular HDAC-Glo I/II assay” value in test [1] is “showed HDAC inhibition”. In addition, the “Activity outcome in HDAC1 enzymatic HDAC-Glo I/II assay” value in test [2] is “inactive”.

With `CC(=O)Oc1ccccc1C(=O)Nc1ncc([N+](=O)[O-])s1` [Nitazoxanide], in test [2], the IC50 was found to be 5.1 ± 0.3 µM and the Emax is 95%.

Consider `O=S(=O)(O)c1ccc2[nH]c(-c3ccccc3)nc2c1` [Ensulizole], for which, in test [2], the IC50 was 2.4 ± 0.3 µM and the Emax is 99%.

(Values after article PMC7848789 (SLAS discovery : advancing life sciences R & D, 2019).)
